Laboratory results published in paper PMC6979384, “Characterization of the plant homeodomain (PHD) reader family for their histone tail interactions” (Epigenetics & Chromatin, 2020).

Key:
Test in all cases: Histone peptide microarray
Type in all cases: binding, human
[1] = system: AIRE (PP); details: total n = 4; for Array Heatmap signal, AIRE (PP): sheet "Array Heatmap", GST-tagged reader, histone peptide array
Outline: (§1)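 Mean ± SD of 4 replicate array intensities; GST-PHD finger at 0.5 μM against 293 PTM-bearing histone peptides.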

[2] = system: BAZ2B; details: total n = 4; for Array Heatmap signal, BAZ2B: sheet "Array Heatmap", GST-tagged reader, histone peptide array
Outline: as §1

[3] = system: BPTF (PB); details: total n = 4; for Array Heatmap signal, BPTF (PB): sheet "Array Heatmap", GST-tagged reader, histone peptide array
Outline: as §1

[4] = system: CHD4 (PPCC); details: total n = 4; for Array Heatmap signal, CHD4 (PPCC): sheet "Array Heatmap", GST-tagged reader, histone peptide array
Outline: as §1

[5] = system: CHD5 (PCC); details: total n = 4; for Array Heatmap signal, CHD5 (PCC): sheet "Array Heatmap", GST-tagged reader, histone peptide array
Outline: as §1

[6] = system: CHD5 (PPCC); details: total n = 4; for Array Heatmap signal, CHD5 (PPCC): sheet "Array Heatmap", GST-tagged reader, histone peptide array
Outline: as §1

[7] = system: DIDO1; details: total n = 4; for Array Heatmap signal, DIDO1: sheet "Array Heatmap", GST-tagged reader, histone peptide array
Outline: as §1

[8] = system: DPF2 (PPC2W2); details: total n = 4; for Array Heatmap signal, DPF2 (PPC2W2): sheet "Array Heatmap", GST-tagged reader, histone peptide array
Outline: as §1

[9] = system: ING1; details: total n = 4; for Array Heatmap signal, ING1: sheet "Array Heatmap", GST-tagged reader, histone peptide array
Outline: as §1

[10] = system: ING2; details: total n = 4; for Array Heatmap signal, ING2: sheet "Array Heatmap", GST-tagged reader, histone peptide array
Outline: as §1

[11] = system: ING3; details: total n = 4; for Array Heatmap signal, ING3: sheet "Array Heatmap", GST-tagged reader, histone peptide array
Outline: as §1

[12] = system: ING4; details: total n = 4; for Array Heatmap signal, ING4: sheet "Array Heatmap", GST-tagged reader, histone peptide array
Outline: as §1

[13] = system: ING5; details: total n = 4; for Array Heatmap signal, ING5: sheet "Array Heatmap", GST-tagged reader, histone peptide array
Outline: as §1

[14] = system: KDM4C (TTP); details: total n = 4; for Array Heatmap signal, KDM4C (TTP): sheet "Array Heatmap", GST-tagged reader, histone peptide array
Outline: as §1

[15] = system: KDM5A (1); details: total n = 4; for Array Heatmap signal, KDM5A (1): sheet "Array Heatmap", GST-tagged reader, histone peptide array
Outline: as §1

[16] = system: KDM5A (3); details: total n = 4; for Array Heatmap signal, KDM5A (3): sheet "Array Heatmap", GST-tagged reader, histone peptide array
Outline: as §1

[17] = system: KDM5B (1); details: total n = 4; for Array Heatmap signal, KDM5B (1): sheet "Array Heatmap", GST-tagged reader, histone peptide array
Outline: as §1

[18] = system: KDM5B (3); details: total n = 4; for Array Heatmap signal, KDM5B (3): sheet "Array Heatmap", GST-tagged reader, histone peptide array
Outline: as §1

[19] = system: KDM7A; details: total n = 4; for Array Heatmap signal, KDM7A: sheet "Array Heatmap", GST-tagged reader, histone peptide array
Outline: as §1

[20] = system: MLL5; details: total n = 4; for Array Heatmap signal, MLL5: sheet "Array Heatmap", GST-tagged reader, histone peptide array
Outline: as §1

[21] = system: MORC3 (CW); details: total n = 4; for Array Heatmap signal, MORC3 (CW): sheet "Array Heatmap", GST-tagged reader, histone peptide array
Outline: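 GST-tagged PHD finger readers were expressed, purified and applied at 0.5 μM to a microarray of 293 synthetic histone peptides carrying single or combinatorial PTMs, using an optimized protocol. Binding signals are averages with standard deviation from 4 replicates.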

[22] = system: PHF13; details: total n = 4; for Array Heatmap signal, PHF13: sheet "Array Heatmap", GST-tagged reader, histone peptide array
Outline: as §1

[23] = system: PHF21A; details: total n = 4; for Array Heatmap signal, PHF21A: sheet "Array Heatmap", GST-tagged reader, histone peptide array
Outline: as §1

[24] = system: PHF23; details: total n = 4; for Array Heatmap signal, PHF23: sheet "Array Heatmap", GST-tagged reader, histone peptide array
Outline: as §1

[25] = system: PHF2; details: total n = 4; for Array Heatmap signal, PHF2: sheet "Array Heatmap", GST-tagged reader, histone peptide array
Outline: as §1

[26] = system: PHF8; details: total n = 4; for Array Heatmap signal, PHF8: sheet "Array Heatmap", GST-tagged reader, histone peptide array
Outline: as §1

[27] = system: PHRF1 (RP); details: total n = 4; for Array Heatmap signal, PHRF1 (RP): sheet "Array Heatmap", GST-tagged reader, histone peptide array
Outline: as §1

[28] = system: RAG2; details: total n = 4; for Array Heatmap signal, RAG2: sheet "Array Heatmap", GST-tagged reader, histone peptide array
Outline: as §1

[29] = system: SP140L; details: total n = 4; for Array Heatmap signal, SP140L: sheet "Array Heatmap", GST-tagged reader, histone peptide array
Outline: as §1

[30] = system: TAF3; details: total n = 4; for Array Heatmap signal, TAF3: sheet "Array Heatmap", GST-tagged reader, histone peptide array
Outline: as §1

[31] = system: TRIM66 (PB); details: total n = 4; for Array Heatmap signal, TRIM66 (PB): sheet "Array Heatmap", GST-tagged reader, histone peptide array
Outline: as §1

H3K14ac + K18ac: H3 1-20
Array Heatmap signal (histone peptide microarray) ([1]; GST-tagged AIRE (PP), sheet Array Heatmap, each array performed twice): 1 | Array Heatmap signal (histone peptide microarray) ([2]; GST-tagged BAZ2B, sheet Array Heatmap, each array performed twice): 0.8123 | Array Heatmap signal (histone peptide microarray) ([3]; GST-tagged BPTF (PB = PHD + Bromodomain), sheet Array Heatmap, each array performed twice): 0.357 | Array Heatmap signal (histone peptide microarray) ([4]; GST-tagged CHD4 (PPCC = Dual PHD + Dual Chromodomain), sheet Array Heatmap, each array performed twice): 0.581 | Array Heatmap signal (histone peptide microarray) ([5]; GST-tagged CHD5 (PCC = PHD + Dual Chromodomain), sheet Array Heatmap, each array performed twice): 0.8723 | Array Heatmap signal (histone peptide microarray) ([6]; GST-tagged CHD5 (PPCC = Dual PHD + Dual Chromodomain), sheet Array Heatmap, each array performed twice): 0.5768 | Array Heatmap signal (histone peptide microarray) ([7]; GST-tagged DIDO1, sheet Array Heatmap, each array performed twice): 0.658 | Array Heatmap signal (histone peptide microarray) ([8]; GST-tagged DPF2 (PPC2W2 = Dual PHD + C2W2-type Zn-finger), sheet Array Heatmap, each array performed twice): 0.9185 | Array Heatmap signal (histone peptide microarray) ([9]; GST-tagged ING1, sheet Array Heatmap, each array performed twice): 0.5141 | Array Heatmap signal (histone peptide microarray) ([10]; GST-tagged ING2, sheet Array Heatmap, each array performed twice): 0.6014 | Array Heatmap signal (histone peptide microarray) ([11]; GST-tagged ING3, sheet Array Heatmap, each array performed twice): 0.4502 | Array Heatmap signal (histone peptide microarray) ([12]; GST-tagged ING4, sheet Array Heatmap, each array performed twice): 0.4542 | Array Heatmap signal (histone peptide microarray) ([13]; GST-tagged ING5, sheet Array Heatmap, each array performed twice): 0.355 | Array Heatmap signal (histone peptide microarray) ([14]; GST-tagged KDM4C (TTP = Tandem Tudor domain + PHD), sheet Array Heatmap, each array performed twice): 0.5291 | Array Heatmap signal (histone peptide microarray) ([15]; GST-tagged KDM5A (1), sheet Array Heatmap, each array performed twice): 0.555 | Array Heatmap signal (histone peptide microarray) ([16]; GST-tagged KDM5A (3), sheet Array Heatmap, each array performed twice): 0.6717 | Array Heatmap signal (histone peptide microarray) ([17]; GST-tagged KDM5B (1), sheet Array Heatmap, each array performed twice): 0.7675 | Array Heatmap signal (histone peptide microarray) ([18]; GST-tagged KDM5B (3), sheet Array Heatmap, each array performed twice): 0.6502 | Array Heatmap signal (histone peptide microarray) ([19]; GST-tagged KDM7A, sheet Array Heatmap, each array performed twice): 0.4239 | Array Heatmap signal (histone peptide microarray) ([20]; GST-tagged MLL5, sheet Array Heatmap, each array performed twice): 0.5196 | Array Heatmap signal (histone peptide microarray) ([21]; GST-tagged MORC3 (CW = CW-type Zn-finger), sheet Array Heatmap, each array performed twice): 0.487 | Array Heatmap signal (histone peptide microarray) ([22]; GST-tagged PHF13, sheet Array Heatmap, each array performed twice): 0.5985 | Array Heatmap signal (histone peptide microarray) ([23]; GST-tagged PHF21A, sheet Array Heatmap, each array performed twice): 0.5152 | Array Heatmap signal (histone peptide microarray) ([24]; GST-tagged PHF23, sheet Array Heatmap, each array performed twice): 0.5075 | Array Heatmap signal (histone peptide microarray) ([25]; GST-tagged PHF2, sheet Array Heatmap, each array performed twice): 0.4774 | Array Heatmap signal (histone peptide microarray) ([26]; GST-tagged PHF8, sheet Array Heatmap, each array performed twice): 0.3925 | Array Heatmap signal (histone peptide microarray) ([27]; GST-tagged PHRF1 (RP), sheet Array Heatmap, each array performed twice): 0.8706 | Array Heatmap signal (histone peptide microarray) ([28]; GST-tagged RAG2, sheet Array Heatmap, each array performed twice): 0.2663 | Array Heatmap signal (histone peptide microarray) ([29]; GST-tagged SP140L, sheet Array Heatmap, each array performed twice): 0.4262 | Array Heatmap signal (histone peptide microarray) ([30]; GST-tagged TAF3, sheet Array Heatmap, each array performed twice): 0.337 | Array Heatmap signal (histone peptide microarray) ([31]; GST-tagged TRIM66 (PB = PHD + Bromodomain), sheet Array Heatmap, each array performed twice): 0.934

H3K14me2: H3 1-20 [Peptide H3K14me2]
Array Heatmap signal, AIRE (PP) [1]: 0.5905 | Array Heatmap signal, BAZ2B [2]: 0.5017 | Array Heatmap signal, BPTF (PB) [3]: 0.3583 | Array Heatmap signal, CHD4 (PPCC) [4]: 0.6389 | Array Heatmap signal, CHD5 (PCC) [5]: 0.8497 | Array Heatmap signal, CHD5 (PPCC) [6]: 0.5851 | Array Heatmap signal, DIDO1 [7]: 0.7549 | Array Heatmap signal, DPF2 (PPC2W2) [8]: 0.7618 | Array Heatmap signal, ING1 [9]: 0.5677 | Array Heatmap signal, ING2 [10]: 0.6018 | Array Heatmap signal, ING3 [11]: 0.5043 | Array Heatmap signal, ING4 [12]: 0.4752 | Array Heatmap signal, ING5 [13]: 0.3792 | Array Heatmap signal, KDM4C (TTP) [14]: 0.5414 | Array Heatmap signal, KDM5A (1) [15]: 0.5072 | Array Heatmap signal, KDM5A (3) [16]: 0.5469 | Array Heatmap signal, KDM5B (1) [17]: 0.6811 | Array Heatmap signal, KDM5B (3) [18]: 0.5212 | Array Heatmap signal, KDM7A [19]: 0.4126 | Array Heatmap signal, MLL5 [20]: 0.5639 | Array Heatmap signal, MORC3 (CW) [21]: 0.4726 | Array Heatmap signal, PHF13 [22]: 0.6476 | Array Heatmap signal, PHF21A [23]: 0.4799 | Array Heatmap signal, PHF23 [24]: 0.5616 | Array Heatmap signal, PHF2 [25]: 0.4838 | Array Heatmap signal, PHF8 [26]: 0.3636 | Array Heatmap signal, PHRF1 (RP) [27]: 0.7403 | Array Heatmap signal, RAG2 [28]: 0.2574 | Array Heatmap signal, SP140L [29]: 0.3561 | Array Heatmap signal, TAF3 [30]: 0.2982 | Array Heatmap signal, TRIM66 (PB) [31]: 0.6527

H3K18ac (1-25): H3 1-25
Array Heatmap signal, AIRE (PP) [1]: 0.502 | Array Heatmap signal, BAZ2B [2]: 0.5309 | Array Heatmap signal, BPTF (PB) [3]: 0.4168 | Array Heatmap signal, CHD4 (PPCC) [4]: 0.699 | Array Heatmap signal, CHD5 (PCC) [5]: 0.844 | Array Heatmap signal, CHD5 (PPCC) [6]: 0.6616 | Array Heatmap signal, DIDO1 [7]: 0.8263 | Array Heatmap signal, DPF2 (PPC2W2) [8]: 0.8287 | Array Heatmap signal, ING1 [9]: 0.6071 | Array Heatmap signal, ING2 [10]: 0.65 | Array Heatmap signal, ING3 [11]: 0.5765 | Array Heatmap signal, ING4 [12]: 0.5434 | Array Heatmap signal, ING5 [13]: 0.4305 | Array Heatmap signal, KDM4C (TTP) [14]: 0.575 | Array Heatmap signal, KDM5A (1) [15]: 0.5632 | Array Heatmap signal, KDM5A (3) [16]: 0.7204 | Array Heatmap signal, KDM5B (1) [17]: 0.7576 | Array Heatmap signal, KDM5B (3) [18]: 0.5812 | Array Heatmap signal, KDM7A [19]: 0.4088 | Array Heatmap signal, MLL5 [20]: 0.6155 | Array Heatmap signal, MORC3 (CW) [21]: 0.6771 | Array Heatmap signal, PHF13 [22]: 0.7117 | Array Heatmap signal, PHF21A [23]: 0.5491 | Array Heatmap signal, PHF23 [24]: 0.5923 | Array Heatmap signal, PHF2 [25]: 0.6849 | Array Heatmap signal, PHF8 [26]: 0.4195 | Array Heatmap signal, PHRF1 (RP) [27]: 0.8108 | Array Heatmap signal, RAG2 [28]: 0.3351 | Array Heatmap signal, SP140L [29]: 0.3993 | Array Heatmap signal, TAF3 [30]: 0.3651 | Array Heatmap signal, TRIM66 (PB) [31]: 0.788
